Values after ≈ are worked out from the molar mass of the structure shown.
Legend:
[1] = system: P388; assay: Antileukemic activity against mouse P388 cells […] in BDF1 mouse at 8 mg/kg; format: functional
[2] = system: KB; assay: Cytotoxicity against human KB cells; format: functional; settings: read-out: ED50 (the source's name)

SMILES	T/C [1]	EC50 [2]
CC(C)=C1C(=O)O[C@@H]2C[C@@H](C)[C@]3(O)C=CC(=O)[C@@H]3C[C@H]12 [MICROHELENIN E]	166%	1.38 µg/mL (≈ 4.99 µM)
CC(C)=C1C(=O)O[C@@H]2C[C@@H](C)[C@@H]3C=CC(=O)[C@]3(O)C[C@H]12 [MICROHELENIN F]	116%	11 µg/mL (≈ 39.8 µM)

Source: ChEMBL document CHEMBL1151389, “Antitumor agents 57. The isolation and structural elucidation of microhelenin-E, a new antileukemic nor-pseudoguaianolide, and microhelenin-F from Helenium microcephalum” (1982)
